These results are taken from ChEMBL document CHEMBL1799994, “Synthesis and docking studies on styryl chromones exhibiting cytotoxicity in human breast cancer cell line” (Bioorg Med Chem Lett, 2010).

The test system of assay [1] is MCF7. In words: Antiproliferative activity against human MCF7 cells expressing estrogen receptor after 24 hrs by MTT assay. The format is functional, cell-based.
Assay [2] deals with MCF7. In words: Cytotoxicity against human MCF7 cells expressing estrogen receptor after 24 hrs by MTT assay. The format is functional, cell-based.

Take `CC(=O)OC1=C(/C=C/c2ccccc2)Oc2ccccc2C1=C(C#N)C#N`: the Activity result in assay [1] and in assay [2] was “Dose-dependent effect” throughout.
